The source of these data is US10231960B2, “Methylphenidate-prodrugs, processes of making and using the same” (KemPharm, Inc., priority 2011, dated 2019).

Converted amounts (≈) assume the structure as drawn.

A word on the Cmax: it is the peak of the concentration-time curve. One may read the Tmax as the time from dosing to the highest level. As a reminder, the solubility is the dissolved amount per volume that the medium holds. Lower therefore signals little dissolved substance.

A short description of data set [1]: Oral PK in rats: plasma methylphenidate released from conjugates vs unconjugated methylphenidate (LC-MS/MS). Conditions: oral gavage; for Tmax: Tmax (Methylphenidate). An excerpt:
Exemplary prodrug conjugates of the present technology were synthesized as described above. The oral plasma concentrations of methylphenidate released from nicotinate-CH2OCO-MPH, phosphate-CH2OCO-MPH, gallate-CH2OCO-MPH, lactate-CH2OCO-MPH, MPH-CO2CH2-nicotinoyl-Asp, MPH-CO2CH2-nicotinoyl-Val, MPH-CO2CH2-nicotinoyl-Gly-Ala, Val-6-aminohexanoate-CH2OCO-MPH, MPH-CO2CH2-nicotinamide, 6-aminohexanoate-CH2OCO-MPH, MPH-CO2CH2-nicotinoyl-O^tBu, MPH-CO2CH2-nicotinate, MPH-CO2CH2-nicotinoyl-OEL MPH-CO2CH2-pyridine, isonicotinate-CH2OCO-MPH and phosphate-(p-salicylate)-CH2OCO-MPH were compared with unconjugated methylphenidate after oral administration in rats. Rats were dosed with oral solutions of the conjugated prodrugs in an amount equivalent to 2 mg/kg of methylphenidate free base and compared to an equimolar solution of unconjugated methylphenidate hydrochloride.
The plasma concentrations of methylphenidate were measured by LC-MS/MS over time.
The dosing vehicles for the PK experiments are as follows: FIG. 13—10% Tween in water. FIGS. 14 and 15—water. FIG. 16—conjugate in 50% PEG-400 in water; control: water. FIG. 17—50% PEG-400 in water. FIG. 18—10% Tween in water. FIGS. 19-27—water. FIGS. 28 and 29—phosphate buffered saline (PBS). FIG. 30—10% Tween in water.

Data set [2] can be described thus: Intranasal PK in rats: plasma methylphenidate released from conjugates vs unconjugated methylphenidate. Format: in vivo. As to conditions: rat, inhaled or intranasal, unconjugated methylphenidate comparator, dosed intranasally. From the text: (§1) FIGS. 14 and 15—water. […] FIG. 17—50% PEG-400 in water. FIG. 18—10% Tween in water. FIGS. 19-27—water. FIGS. 28 and 29—phosphate buffered saline (PBS). FIG. 30—10% Tween in water.

The nature of data set [3]: Intravenous PK in rats: plasma methylphenidate released from conjugates vs unconjugated methylphenidate. Format: in vivo. Conditions: rat, unconjugated methylphenidate comparator, dosed intravenously.
Source text: as §1

Data set [4] in a line: Water solubility at ambient temperature. Format: physicochemical. The procedure:
The water solubility of phosphate-CH2OCO-methylphenidate and unconjugated methylphenidate was determined at ambient temperature and the results are found in Table 5.

For data set [5] the following is noted: water, at 32° C.; cited from earlier work.
[6] abbreviates: conjugate relative to unconjugated methylphenidate.
[7] abbreviates: plasma methylphenidate released from conjugate, equivalent to 2 mg/kg methylphenidate free base.
Where [8] appears, read: read-out: AUC0-4 h (Methylphenidate).
Where [9] appears, read: conjugate relative to methylphenidate hydrochloride from combined data of six studies.
[10] abbreviates: calculated from combined data of three studies (footnote a).

`COC(=O)C(c1ccccc1)C1CCCCN1C(=O)OCOC(=O)CCCCCN` (centres unmarked) [6-Aminohexanoate-CH2OCO-MPH, (6-aminohexanoyloxy)methyl methylphenidate-1-carboxylate]: in data set [1] (setting [6]), the AUC-% is 82%, the Cmax-% is listed as 109% and the Tmax-% amounted to 88%. Also, in data set [1] (setting [7]), the “AUC0-4 h (Conjugate)” value was 145.6 ng·h/mL, the “Cmax (Conjugate)” value was found to be 173.5 ng/mL and the “Tmax (Conjugate)” value is 21 min.
As to `COC(=O)C(c1ccccc1)C1CCCCN1C(=O)OCOC(=O)C(C)O` (centres unmarked) [Lactate-CH2OCO-MPH, lactate-CH2OCO-MPH], in data set [1] (setting [6]), the AUC-% amounted to 73%, the Cmax-% worked out at 75% and the Tmax-% was 120%. In data set [1] (setting [7]), the “AUC0-4 h (Conjugate)” value is 132.3 ng·h/mL, the “Cmax (Conjugate)” value was determined as 122.5 ng/mL and the “Tmax (Conjugate)” value came to 18 min.
`COC(=O)C(c1ccccc1)C1CCCCN1` (centres unmarked) [Methylphenidate, methyl phenyl(piperidin-2-yl)acetate]: the AUC(0-t) in data set [1] (rat, plasma, po, 2 mg/kg, AUC0-4 h (Methylphenidate), methylphenidate hydrochloride, combined data of six studies (footnotes a, b)) amounted to 106 ng·h/mL; in data set [2] (setting [8]), 1050 ng·h/mL; in data set [3] (setting [8]), 320 ng·h/mL. Further, the Cmax was 114 ng/mL in data set [1] (rat, plasma, po, 2 mg/kg, Cmax (Methylphenidate), methylphenidate hydrochloride, combined data of six studies (footnotes a, b)); 2210 ng/mL in data set [2]; 296 ng/mL in data set [3]. Moreover, the Tmax in data set [1] (rat, plasma, po, 2 mg/kg, methylphenidate hydrochloride, combined data of six studies (footnotes a, b)) is 17 min; in data set [1] (rat, plasma, po, 2 mg/kg, unconjugated methylphenidate hydrochloride comparator of the same row, equimolar) it was 15 min; in data set [2] it was 6.96 min; in data set [3] it was 31 min. In addition, the concentration in solution in data set [4] (water) (solubility) came to 169 mg/mL (≈ 724 mM). In data set [5], the “Solubility data found in the literature” value is reported as 191 mg/mL (≈ 819 mM).
In the case of `COC(=O)C(c1ccccc1)C1CCCCN1C(=O)OCOP(=O)(O)O` (centres unmarked) [Phosphate-CH2OCO-MPH, phosphate-CH2OCO-MPH], in data set [1] (setting [9]), the AUC-% stood at 146%, the Cmax-% is 140% and the Tmax-% stood at 88%. For the same compound, in data set [1] (setting [6]), the AUC-% is given as 185%, the Cmax-% is given as 144% and the Tmax-% is recorded as 100%. Besides, in data set [1] (setting [10]), the “AUC0-4 h (Conjugate)” value was 154.5 ng·h/mL, the “Cmax (Conjugate)” value is 158.9 ng/mL and the “Tmax (Conjugate)” value was 15 min. In data set [1] (setting [7]), the “AUC0-4 h (Conjugate)” value is 110.8 ng·h/mL, the “Cmax (Conjugate)” value was 110.8 ng/mL and the “Tmax (Conjugate)” value is 15 min. Further, the “Solubility in Water” value in data set [4] worked out at 432 mg/mL. In addition, the “Water solubility relative to the unconjugated form” value in data set [4] (vs unconjugated methylphenidate hydrochloride) was “about 2.5 times”.
For the compound `COC(=O)C(c1ccccc1)C1CCCCN1C(=O)OCOC(=O)CCCCCNC(=O)C(N)C(C)C` (centres unmarked) [Val-6-aminohexanoate-CH2OCO-MPH], in data set [1] (setting [6]), the AUC-% turned out to be 58%, the Cmax-% turned out to be 59% and the Tmax-% is 83%. Also, in data set [1] (setting [7]), the “AUC0-4 h (Conjugate)” value amounted to 44.9 ng·h/mL, the “Cmax (Conjugate)” value worked out at 52.7 ng/mL and the “Tmax (Conjugate)” value amounted to 15 min.
